Test results taken from PubChem BioAssay AID463206 (Broad Institute, 2010).
Active and inactive are the calls of the source.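 The calls were made as follows: active = caspase luminescence falls with dose and the half-maximal concentration AC50 from the fitted curve is at or below a set limit; inconclusive = flat fit at 30 to 70% signal loss, or invalid fit; inactive = AC50 above the limit, or signal rises instead.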

The compounds below were run on INS-1E cytokine-induced caspase-3/7, Caspase-Glo luminescence, 48 h (assay: suppression of cytokine-driven beta-cell apoptosis – INS-1E rat cells, luminescence, orthogonal assay for beta-cell apoptosis protection project, dose response (AID 463206)).

| Compound | AC50 |
| --- | --- |
| Oc1ccc2ccccc2c1/C=N/Nc1nnc(-c2ncc[nH]2)c2ccccc12 | > 26 µM (inactive) |
| CCCOc1ccc(/C=N/Nc2cc(N3CCOCC3)ncn2)c(O)c1 | > 26 µM (inactive) |
| Oc1c(CN2CCOCC2)cc(COCc2ccccc2)c2cccnc12 | > 26 µM (inactive) |
| Cc1ccc(C(=O)O/N=C/c2c(N3CCOCC3)n(C)c3ccccc23)cc1 | > 26 µM (inactive) |
| Cc1ccc(C[n+]2cccc(-c3ccccc3)c2)c(C)c1 | > 26 µM (inactive) |
| CCOC(=O)N1CCN(c2ncnc3c2[nH]c2ccc(F)cc23)CC1 | > 26 µM (inactive) |
| Cc1ccc2nc(NNC(=O)c3ccc(S(=O)(=O)N4CCc5ccccc5C4)cc3)sc2c1 | > 26 µM (inactive) |
| O=C(N/N=C/c1ccc([N+](=O)[O-])s1)C(O)c1ccccc1 (stereo not given) | > 26 µM (inactive) |
| OC(c1cc(-c2ccc(C(F)(F)F)cc2)nc(C(F)(F)F)c1)C1CCCCN1 (stereo not given) | > 26 µM (inactive) |
| COc1ccc(S(=O)(=O)Nc2cc(SCC(=O)O)c(O)c3ccccc23)cc1 | > 26 µM (inactive) |
| COc1ccc2c(c1)N(C)/C(=C/c1cccc[n+]1C)S2 | > 26 µM (inactive) |
| C=C1C(=O)O[C@@H]2C[C@@H](C)[C@@H]3C4OC4C(=O)[C@@]3(C)[C@@H](O)[C@H]12 (stereo not given in full) | > 26 µM (inactive) |
| Cc1nn(-c2nc3ccccc3[nH]2)c(=O)c2ccccc12 | > 26 µM (inactive) |
| CC(=O)NC(c1cc(Cl)c2cccnc2c1O)C1CC1 (stereo not given) | > 26 µM (inactive) |
| COC(=O)c1sc(-c2ccc(C(C)(C)C)cc2)cc1NC(=O)/C=C/C(=O)O | > 26 µM (inactive) |
| CC(C)(C)c1ccc(/C=C(\c2nc3ccccc3[nH]2)S(=O)(=O)c2ccccc2)cc1 | > 26 µM (inactive) |
| COc1ccc(-c2cc3ccccc3oc2=O)cc1NC(=O)c1ccc([N+](=O)[O-])o1 | > 26 µM (inactive) |
| CC(C)OCCCNC(=S)N1CCC(C(=O)c2ccc(Cl)cc2)CC1 | > 26 µM (inactive) |
| CCCC[n+]1ccn(C2=C([O-])c3ccccc3C(=O)/C2=N\S(=O)(=O)c2ccc(Br)cc2)c1 | > 26 µM (inactive) |
| O=C(CNC(=O)c1ccc2c(c1)OCO2)N/N=C/c1cc(Br)ccc1O | > 26 µM (inactive) |
| Cc1ccc2nc(-c3ccc(NC(=O)c4cccnc4)cc3)oc2c1 | > 26 µM (inactive) |
| CCn1c(=O)c([N+](=O)[O-])c(Cl)c2ccccc21 | > 26 µM (inactive) |
| C/C(=N\NC(=O)c1ccc(Cl)cc1)c1ccccn1 | > 26 µM (inactive) |

| Compound | AC50 |
| --- | --- |
| COc1ccc([N+](=O)[O-])c(S(=O)(=O)c2ccc(Cl)cc2)n1 | > 26 µM (inactive) |
| CCOc1ccc(-n2c(-c3ccccc3)c[n+]3c2CCCCC3)cc1 | > 26 µM (inactive) |
| COc1ccc(Cc2nnc(N/N=C/c3ccc(O)cc3)[nH]c2=O)cc1OC | > 26 µM (inactive) |
| Cc1ccc(-n2cccc2C(=S)N=P(N(C)C)(N(C)C)N(C)C)cc1 | > 26 µM (inactive) |
| COc1ccc2nc(/C(C#N)=C\c3ccc(Oc4ccc([N+](=O)[O-])cn4)cc3)[nH]c2c1 | > 26 µM (inactive) |
| Cc1cc(N/N=C/c2ccccc2[N+](=O)[O-])nc(-n2nc(C)cc2C)n1 | > 26 µM (inactive) |
| Cc1ccc(S(=O)(=O)N2CCN(c3ncnc4sccc34)CC2)cc1 | > 26 µM (inactive) |
| COc1ccc(C)cc1Nc1n[n+](-c2ccccc2)c(-c2c(Cl)cccc2Cl)s1 | > 26 µM (inactive) |
| c1ccc(CNc2c(-c3cccc(SC4CCCCC4)c3)nc3ccccn23)cc1 | > 26 µM (inactive) |
| Cn1ncc2c(O/N=C(\N)c3ccc(C(C)(C)C)cc3)ncnc21 | > 26 µM (inactive) |
| Cc1cc(C)n(-c2nc(NCCO)c3c4c(sc3n2)CCCC4)n1 | > 26 µM (inactive) |
| CCN(CC)CCOc1ccc2c(c1)C(=NNC(=O)c1ccccn1)c1cc(OCCN(CC)CC)ccc1-2 | > 26 µM (inactive) |
| O=C(C#Cc1ccccc1)Nc1cccc(F)c1 | > 26 µM (inactive) |
| O=c1c2c3c(sc2n(CCN2CCCCC2)c(=O)n1Cc1ccco1)CCCCC3 | 25.4 µM |
| COC(=O)c1ccccc1NC1=C/C(=N\S(=O)(=O)c2cccs2)c2ccccc2C1=O | > 26 µM (inactive) |
| CC[N+](C)(CC)CCC(c1ccccc1)C1CCCCC1 (stereo not given) | > 26 µM (inactive) |
| O=C(OCCOc1cccc(Cl)c1)c1cc(S(=O)(=O)N2CCCCC2)ccc1N1CCOCC1 | > 26 µM (inactive) |
| CCN1c2ccccc2NC2N=C(OC)C(c3ccccc3)C21 (stereo not given) | > 26 µM (inactive) |
| Cc1ccc(O)c(CNc2cccc3cccnc23)c1 | > 12 µM (inactive) |
| COc1ccc(CNC(=O)c2c(C)oc3c2C(=O)c2ccccc2C3=O)cc1 | > 26 µM (inactive) |
| C#CCOCCOCCOCCNc1nc(N2CCN(C(=O)CCCCCCCCCCNC(=O)Cn3cc(CCCCCN)nn3)CC2)nc(N2CCN(C(=O)CCCCCCCCCCNC(=O)[C@H]([C@@H](C)CC)n3cc(CCCCN=C(N)N)nn3)CC2)n1 | > 26 µM (inactive) |
| COC(=O)c1ccc(NC(=O)c2cccnc2)cc1 | > 26 µM (inactive) |
